Test results: the supplement of paper PMC6045584

These test systems were tested with CCN(CC)CCNC(=O)c1c(C)[nH]c(/C=C2\C(=O)Nc3ccc(F)cc32)c1C [SUNITINIB] (assay: area under dose-response curve of surviving fraction (unscaled, Aref=0) (surviving fraction x log10(nM)); higher = more resistant). Details: exposure time: 5 days; dose range 0.5-1000 nM.
Procedure, shortened: (§1)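 Tumour cell lines in 384-well plates were exposed to eight inhibitor concentrations, from 0.5 to 1000 nM, for five days, and viability was read by CellTiter-Glo luminescence in three screens per line. Signals were normalised to DMSO-only wells, and 3-parameter logistic regression in the drc R package fitted dose-response survival curves to the surviving fractions. Area under the curve is given as the unscaled activity area. That area is taken over log10 dose with Aref = 0.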

Test System | area under dose-response curve
HCC202 BREAST | 3.12
HCC1806 BREAST | 2.29
HELA CERVIX | 3.08
HMLE3 BREAST | 2.08
HOSMNG BONE | 3.15
HT1080 SOFT TISSUE | 3.16
HU09 BONE | 1.9
JURKAT HAEMATOPOIETIC AND LYMPHOID TISSUE | 3.06
LM7 BONE | 2.46
MDAMB157 BREAST | 2.52
MDAMB453 BREAST | 3.27
MG63 BONE | 2.72
NCIH441 LUNG | 3.25
NOS1 BONE | 1.78
OSHN BONE | 3.18
RDES SOFT TISSUE | 2.98
S68 BREAST | 2.58
SAOS2 BONE | 2.75

Test System | area under dose-response curve
SCC36 HEADNECK | 2.53
SCC47 HEADNECK | 3.14
SCC90 HEADNECK | 3.19
SG27 HEADNECK | 3.67
SG28 HEADNECK | 2.12
SG31 HEADNECK | 2.47
SG32 HEADNECK | 1.96
SIHA CERVIX | 3.13
SJSA1 BONE | 3.16
SKBR3 BREAST | 2.46
SUM149 BREAST | 2.12
SUM149.B1*.S BREAST | 2.35
SUM159 BREAST | 3.06
VCAP PROSTATE | 3.14
VP229 BREAST | 2.41
YAMATO SYNOVIAL | 1.58
ZR751 BREAST | 3.62

Each test system was assayed with CN(Cc1cnc2nc(N)nc(N)c2n1)c1ccc(C(=O)N[C@@H](CCC(=O)O)C(=O)O)cc1 [METHOTREXATE] in the same assay as above. Details: exposure time: 5 days; dose range 0.5-1000 nM.
Procedure, shortened: as §1

Test System | area under dose-response curve
A549 LUNG | 2.14
ASKA SYNOVIAL | 3.77
BT20 BREAST | 3.51
BT549 BREAST | 1.9
CME SYNOVIAL | 2.37
HCC1806 BREAST | 1.55
HELA CERVIX | 2.22
HMLE3 BREAST | 2.58
HMT3552 BREAST | 2.25
HOSMNG BONE | 1.71
HS578T BREAST | 2.46
HT1080 SOFT TISSUE | 1.8
HU09 BONE | 2.42
JURKAT HAEMATOPOIETIC AND LYMPHOID TISSUE | 1.35
LM7 BONE | 3
MDAMB157 BREAST | 3.15
MDAMB453 BREAST | 2.93
MG63 BONE | 2.15
NOS1 BONE | 3.88

Test System | area under dose-response curve
OSHN BONE | 1.28
RDES SOFT TISSUE | 1.28
S68 BREAST | 3.64
SCC36 HEADNECK | 2.83
SCC47 HEADNECK | 2.96
SCC90 HEADNECK | 2.81
SG31 HEADNECK | 3.94
SG32 HEADNECK | 3.65
SIHA CERVIX | 2.99
SJSA1 BONE | 5.58
SKBR3 BREAST | 2.7
SUM44 BREAST | 3.95
SUM149 BREAST | 2.98
SUM159 BREAST | 3.2
VCAP PROSTATE | 3.36
VP229 BREAST | 3.77
YAMATO SYNOVIAL | 2.44
ZR751 BREAST | 2.86

What follows are test systems tested with CO[C@H]1C[C@@H]2CC[C@@H](C)[C@@](O)(O2)C(=O)C(=O)N2CCCC[C@H]2C(=O)O[C@H]([C@H](C)C[C@@H]2CC[C@@H](OCCO)[C@H](OC)C2)CC(=O)[C@H](C)/C=C(\C)[C@@H](O)[C@@H](OC)C(=O)[C@H](C)C[C@H](C)/C=C/C=C/C=C/1C [EVEROLIMUS] in the same assay as above. Details: exposure time: 5 days; dose range 0.5-1000 nM.
Procedure, shortened: as §1

Test System | area under dose-response curve
93VU HEADNECK | 2.71
A549 LUNG | 2.81
ASKA SYNOVIAL | 2.28
BT20 BREAST | 1.35
HCC38 BREAST | 2.92
HCC1806 BREAST | 2.74
HELA CERVIX | 3.58
HMLE3 BREAST | 2.01
HMT3552 BREAST | 1.98
HOSMNG BONE | 3.27
HS578T BREAST | 1.77
HT1080 SOFT TISSUE | 2.11
JURKAT HAEMATOPOIETIC AND LYMPHOID TISSUE | 1.76
LM7 BONE | 2.56
MDAMB157 BREAST | 2.25
MDAMB453 BREAST | 1.43
MG63 BONE | 2.17
NOS1 BONE | 1.75
OSHN BONE | 3.41

Test System | area under dose-response curve
RDES SOFT TISSUE | 3.46
S68 BREAST | 1.39
SAOS2 BONE | 3.1
SCC36 HEADNECK | 3.13
SCC47 HEADNECK | 3.2
SCC90 HEADNECK | 2.09
SG27 HEADNECK | 3.13
SG31 HEADNECK | 2.18
SIHA CERVIX | 2.23
SJSA1 BONE | 5.2
SKBR3 BREAST | 1.31
SUM44 BREAST | 2.5
SUM149 BREAST | 1.67
SUM149.B1*.S BREAST | 3.22
SUM159 BREAST | 2.88
VCAP PROSTATE | 3.02
VP229 BREAST | 1.96
YAMATO SYNOVIAL | 2.2
ZR751 BREAST | 1.57

The test systems below were run with COc1cc(CCc2cc(NC(=O)c3ccc(N4CC(C)NC(C)C4)cc3)n[nH]2)cc(OC)c1 [AZD4547] in the same assay as above. Details: exposure time: 5 days; dose range 0.5-1000 nM.
Procedure, shortened: as §1

Test System | area under dose-response curve
93VU HEADNECK | 3.56
143B BONE | 2.83
A549 LUNG | 3.33
BT20 BREAST | 3.58
BT549 BREAST | 3.46
HCC38 BREAST | 2.93
HCC202 BREAST | 3.81
HCC1806 BREAST | 3.6
HELA CERVIX | 3.71
